{"source": "paper PMC7767178", "about": "(International Journal of Molecular Sciences, 2020)", "key": {"A. veronii ACCC61732 [1]": {"tested_on": "A. veronii ACCC61732", "assay": "microbe, parasite or virus in culture", "assay_type": "cell-based", "settings": "for MIC: Aeromonas veronii; for MICa, MIC of the antibiotic used alone: checkerboard", "source_text": "The checkerboard microtiter assay was used to determine the combinations of peptides with different antibiotics (including quinolone, rifamycin, peptide antibiotics, aminoglycoside, tetracycline, and chloramphenicol). […] The fractional inhibitory concentration (FIC) was used to calculate the combination effects using the following formula: FIC index (FICI) = MIC(peptide in combination)/MIC(peptide alone) + MIC(antibiotic in combination)/MIC(antibiotic alone). FICI ≤ 0.5 means synergistic, 0.5 < FICI ≤ 1 means additive action, 1 < FICI ≤ 4 means indifference, and FICI > 4 means antagonism."}, "A. veronii ACCC61732 [2]": {"tested_on": "A. veronii ACCC61732", "assay": "Resistance development, 30 serial passages", "assay_type": "cell-based", "settings": "A. veronii ACCC61732, 30 passages (30 days)", "protocol": "The development of bacterial resistance of peptides was performed by the MIC assays. […] GEN, CIP, and PMB were used as controls. […] The MIC values were measured as described above. The serial passaging was repeated for 30 days."}, "Gram-negative bacteria": {"tested_on": "Gram-negative bacteria", "settings": "data not shown; ref our previous study; cited from earlier work", "source_text": "A. veronii is a widely distributed novel pathogen that can infect humans and animals. Due to overuse of broad-spectrum antibiotics in fish hatcheries, agriculture, and clinical settings, there has been an increase in antibiotic resistance of Aeromonas species, illustrating an emerging potential health concern."}, "A. veronii ACCC61732 [3]": {"tested_on": "A. veronii ACCC61732", "assay": "Outer membrane permeabilization, NPN assay", "assay_type": "cell-based", "settings": "NPN fluorescence, 1×–4× MIC", "protocol": "The outer membrane permeabilization abilities of peptides were determined using the fluorescent NPN assay. Mid-log phase A. veronii ACCC61732 was collected by centrifugation, washed twice, and then suspended in N-2-hydroxyethylpiperazine-n-2-ethane sulfonic acid (HEPES) buffer (pH 7.4) to an OD600nm = 0.4. […] Fluorescence intensity was recorded until no further increase with a microplate reader (excitation/emission, 328/438 nm)."}, "[4]": {"settings": "ACCC61732, checkerboard, Tables S1–S5, identical values of one substance within a block given once, read-out: MICa, MIC of the antibiotic used alone"}, "[5]": {"settings": "Tables S1–S5, identical values of one substance within a block given once"}}, "note": "Where a name gives a salt, the structure may show the parent alone. Read-outs that look alike come from different tables or passages of the source.", "data": [{"compound": "O=C(N[C@H](CO)[C@H](O)c1ccc([N+](=O)[O-])cc1)C(Cl)Cl", "note": "[CHLO, chloramphenicol]", "values": [{"measurement": "MIC", "setting": "A. veronii ACCC61732 [1]; [4]", "value": 0.25, "unit": "µg/mL"}]}, {"compound": "CCN1CCN(c2cc3c(cc2F)c(=O)c(C(=O)O)cn3C2CC2)CC1", "note": "[ENRO, enrofloxacin]", "values": [{"measurement": "MIC", "setting": "A. veronii ACCC61732 [1]; [4]", "value": 0.25, "unit": "µg/mL"}]}, {"compound": "CNC(C)C1CCC(N)C(OC2C(N)CC(N)C(OC3OCC(C)(O)C(NC)C3O)C2O)O1", "note": "(stereo not shown) [GEN, gentamicin, reference compound]", "values": [{"measurement": "increase of MIC after 30 serial passages", "setting": "A. veronii ACCC61732 [2]", "value": 31, "unit": "fold"}]}, {"compound": "NC[C@H]1O[C@H](O[C@H]2[C@H](O)[C@@H](O[C@H]3O[C@H](CO)[C@@H](O)[C@H](N)[C@H]3O)[C@H](N)C[C@@H]2N)[C@H](O)[C@@H](O)[C@@H]1O", "note": "[KANA, kanamycin sulfate]", "values": [{"measurement": "MIC", "setting": "A. veronii ACCC61732 [1]; [4]", "value": 8, "unit": "µg/mL"}]}, {"compound": "CCn1cc(C(=O)O)c(=O)c2cc(F)c(N3CCNCC3)cc21", "note": "[NOR, norfloxacin]", "values": [{"measurement": "MIC", "setting": "A. veronii ACCC61732 [1]; [4]", "value": 0.5, "unit": "µg/mL"}]}, {"compound": "CC1COc2c(N3CCN(C)CC3)c(F)cc3c(=O)c(C(=O)O)cn1c23", "note": "(stereo not shown) [OFX, ofloxacin]", "values": [{"measurement": "MIC", "setting": "A. veronii ACCC61732 [1]; [4]", "value": 0.25, "unit": "µg/mL"}]}, {"compound": "[H]/N=C(/N)N[C@H]1[C@H](O)[C@@H](O)[C@H](O[C@@H]2O[C@@H](C)[C@](O)(C=O)[C@H]2O[C@@H]2O[C@@H](CO)[C@H](O)[C@@H](O)[C@@H]2NC)[C@@H](N/C(N)=N\\[H])[C@@H]1O", "note": "[STRE, streptomycin sulfate]", "values": [{"measurement": "MIC", "setting": "A. veronii ACCC61732 [1]; [4]", "value": 64, "unit": "µg/mL"}]}, {"compound": "CN[C@H](CC(C)C)C(=O)N[C@H]1C(=O)N[C@@H](CC(N)=O)C(=O)N[C@H]2C(=O)N[C@H]3C(=O)N[C@H](C(=O)N[C@H](C(=O)O)c4cc(O)cc(O)c4-c4cc3ccc4O)[C@H](O)c3ccc(c(Cl)c3)Oc3cc2cc(c3O[C@@H]2O[C@H](CO)[C@@H](O)[C@H](O)[C@H]2O[C@H]2C[C@](C)(N)[C@H](O)[C@H](C)O2)Oc2ccc(cc2Cl)[C@H]1O", "note": "[VAN, vancomycin]", "values": [{"measurement": "MIC", "setting": "A. veronii ACCC61732 [1]; ACCC61732, read-out: MICa, MIC of the antibiotic used alone", "value": 16, "unit": "µg/mL"}]}, {"compound": "AACCGFWNVVYRNGVRVHRRN [SN1, analog of N6 without the β-sheet structural feature]", "values": [{"measurement": "antimicrobial activity against Gram-negative bacteria", "setting": "Gram-negative bacteria", "value": "lost the antimicrobial activity"}]}, {"compound": "GFWNVVYRNGVAACCRVHRRN [SN3, analog of N6 without the β-sheet structural feature]", "values": [{"measurement": "antimicrobial activity against Gram-negative bacteria", "setting": "Gram-negative bacteria", "value": "lost the antimicrobial activity"}]}, {"compound": "VCVYRCHRRANGFAWNNGVRV [N2413, analog of N6 without the β-sheet structural feature]", "values": [{"measurement": "antimicrobial activity against Gram-negative bacteria", "setting": "Gram-negative bacteria", "value": "lost the antimicrobial activity"}]}, {"compound": "VCVYRGFAWNCHRRANNGVRV [N2143, analog of N6 without the β-sheet structural feature]", "values": [{"measurement": "antimicrobial activity against Gram-negative bacteria", "setting": "Gram-negative bacteria", "value": "lost the antimicrobial activity"}]}, {"compound": "doxycycline hyclate", "values": [{"measurement": "MICa, MIC of the antibiotic used alone", "setting": "A. veronii ACCC61732 [1]; [5]", "value": 1, "unit": "µg/mL"}]}, {"compound": "polymyxin B [PMB, reference compound]", "values": [{"measurement": "MICa, MIC of the antibiotic used alone", "setting": "A. veronii ACCC61732 [1]; [5]", "value": 8, "unit": "µg/mL"}, {"measurement": "increase of MIC after 30 serial passages", "setting": "A. veronii ACCC61732 [2]", "value": "one-fold"}, {"measurement": "ability to penetrate the outer membrane", "setting": "A. veronii ACCC61732 [3]", "value": "higher ability to penetrate the outer membrane than N6NH2"}]}]}
